Experimental data: patent US20240325550A1, “Therapeutic Compounds for Inhibiting and Reducing the Expression of Cell Surface Proteins” (KIST (Korea Institute of Science and Technology), priority 2023, published 2024)
{DBCO} = dibenzocyclooctyne group for click conjugation; d = 2'-deoxy (DNA); r = 2'-OH (RNA)

Columns and labels:
[1] = target: T1, EGFR expressed by A549 cells (Homo sapiens, UniProt P00533); test: Binding of YOYO-1-stained conjugate to EGFR on A549 cells (microscopy); settings: 200 nM, 30 minutes
T1 construct: EGFR expressed by A549 cells; endogenous in cells; host or cells: A549 cells
Procedure: (§1) We tested whether the EGFR binding peptide-siRNA conjugate of Example 6 was able to specifically bind EGFR expressed by A549 cells by incubating the EGFR binding peptide-siRNA conjugate of Example 6 with A549 cells. As a control, A549 cells were incubated with the unconjugated anti-EGFR siRNA of Example 6.
A549 cells were treated with 200 nM of either the EGFR-binding peptide-conjugated siRNA of Example 6 or the unconjugated EGFR siRNA of Example 6, each stained with YOYO-1, a nucleic acid staining dye.
After 30 minutes, cells were then fixated with 4% paraformaldehyde (PFA) for 10 minutes, then washed twice with DPBS. Nuclei were then stained using Hoechst 33342 and the cells were examined for YOYO-1 staining.

[2] = target: T2, PD-L1 expressed by CT26.CL25 cells (Mus musculus, UniProt Q9EP73); test: Binding of Cy5.5-labeled conjugate to PD-L1 on CT26.CL25 cells (fluorescence microscopy); settings: 200 nM, 30 minutes at 4° C., no antibody pre-treatment
T2 construct: PD-L1 expressed by CT26.CL25 cells; endogenous in cells; host or cells: CT26.CL25 cells
T2 sequence (Q9EP73 19-290): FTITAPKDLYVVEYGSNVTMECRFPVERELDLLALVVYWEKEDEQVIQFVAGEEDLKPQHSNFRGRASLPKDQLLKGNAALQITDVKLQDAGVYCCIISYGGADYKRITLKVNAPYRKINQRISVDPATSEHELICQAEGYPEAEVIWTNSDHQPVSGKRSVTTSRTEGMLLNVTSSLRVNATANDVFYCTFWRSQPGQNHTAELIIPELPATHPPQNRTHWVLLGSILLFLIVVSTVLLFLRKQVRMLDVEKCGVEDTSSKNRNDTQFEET
Procedure: as §1, with “PD-L1” for “EGFR”, “1” for “6”, “CT26.CL25” for “A549”, “CT26.CL25 cells that either had, or had not, been pre-treated with an anti-PD-L1 antibody.” for “A549 cells.”, “anti-PD-L1” for “anti-EGFR”, “1.” for “6.”
Here, 2 ml of CT26.CL25 cells (at 5×10^6 cells/ml) were seeded into each of four dishes. 24 hours after seeding, and one hour before treatment with the conjugate of Example 1, one dish was pre-treated with 1 ml of anti-PD-L1 antibody (InVivoMAb anti-mouse PD-L1, BioXCell Cat. #BE0101) at 1 mg/ml. After incubation with the antibody, the pre-treated cells were incubated with 1 ml (200 nM) of the conjugate of Example 1 for 30 minutes at 4° C. At the same time, a dish that had not been pre-treated was similarly incubated with the conjugate of Example 1, and another dish that had not been pre-treated was similarly incubated with the unconjugated anti-PD-L1 siRNA of Example 1.
Cells were then fixated with 4% paraformaldehyde (PFA) for 10 min, then washed twice with DPBS. Nuclei were then stained using Hoechst 33342 (blue of FIG. 2) and the cells were examined for Cy5.5 fluorescence (red of FIG. 2).

CT26.CL25 cells = test: Internalization by CT26.CL25 cells (Cy5.5 fluorescence microscopy); type: cell-based; settings: 9 hours, 18 hours and 24 hours of incubation
Procedure: CT26.CL25 cells were incubated, as described in Example 2, with either the PD-L1 binding peptide-siRNA conjugate of Example 1 or the unconjugated Cy5.5-labeled siRNA of Example 1. After 9 hours, 18 hours, and 24 hours of incubation, cells were then fixated with 4% paraformaldehyde (PFA) for 10 min and washed twice with DPBS.
(§2) Nuclei were stained using Hoechst 33342 (blue of FIGS. 3 and 4) and the cells were examined for Cy5.5 fluorescence (red of FIGS. 3 and 4).

B16F10 cells = test: Internalization by B16F10 cells (Cy5.5 fluorescence microscopy); type: cell-based; settings: 18 hours and 24 hours of incubation
Procedure: B16F10 cells were also incubated with either the PD-L1 binding peptide-siRNA conjugate of Example 1 or the unconjugated Cy5.5-labeled siRNA of Example 1 and similarly fixated after 18 hours and 24 hours of incubation.
as §2

Substance	YOYO-1 staining on cells (binding to EGFR) [1]	Cy5.5 fluorescence on cells (binding to cell-surface PD-L1) [2]	Cy5.5 fluorescence on cells (binding to cell-surface PD-L1) ([2]; listed as unconjugated Cy5.5-labeled siRNA)	Internalization (Cy5.5 fluorescence) (CT26.CL25 cells)	Internalization (Cy5.5 fluorescence) (B16F10 cells)
siRNA: anti-EGFR siRNA: sense AUAGGCAUUGGUGAAUUUAAAGAdCdA-[DBCO] (SEQ ID NO:120), antisense UGUCUUUAAAUUCACCAAUGCCUAUGC (SEQ ID NO:121) (sense AUAGGCAUUGGUGAAUUUAAAGACA; sense: sugars from the 5' end r23 d2, 3' {DBCO}, backbone not given here; antisense: RNA, backbone not given here; sense 3' DBCO clicked to azide EGFR-binding peptide) [reference compound]	no YOYO-1 staining				
unconjugated Cy5.5-labeled siRNA of Example 1: anti-PD-L1 siRNA: sense GACUCAAGAUGGAACCUGAdTdT-[DBCO] (SEQ ID NO:12), antisense dTdTCUGAGUUCUACCUUGGACU-Cy5.5 (SEQ ID NO:13) (sense GACUCAAGAUGGAACCUGATT; antisense TTCUGAGUUCUACCUUGGACU; dTdT overhangs, DBCO, Cy5.5 label, chemistry not fully specified; one strand is listed 3' to 5') [reference compound]		very low levels of Cy5.5 fluorescence	little to no Cy5.5 fluorescence	significantly less Cy5.5 fluorescence	significantly less Cy5.5 fluorescence
